In patent US20260274892A1, “MACROCYCLIC BROAD SPECTRUM ANTIBIOTICS” (RQx Pharmaceuticals, Inc., priority 2017, published 2026) one finds MIC data, which are given here for ten molecules.

For test [1], the system named is Methicillin Resistant Staphylococcus aureus strain USA 200. As to the kind of experiment: Minimum inhibitory concentration (MIC), CLSI broth micro-dilution, S. aureus. The format is cell-based. To be noted: Staphylococcus aureus, MRSA / USA200, MRSA USA 200, cation adjusted Mueller Hinton Broth + 0.002% Tween-80, 35° C., 22 hours. The method, then:
In vitro antimicrobial activity of each compound was determined by measuring minimal inhibitor concentrations (MICs) using the broth micro-dilution technique as approved by the Clinical and Laboratory Standards Institute (CLSI) (Methods for Dilution Antimicrobial Susceptibility Tests for Bacteria that Grow Aerobically; Approved Standard-Eighth Edition. CLSI document M07-A8. Wayne, PA: Clinical and Laboratroy Standards; 2009). Antibacterial activity was measure against two strains of bacteria: a Methicillin Resistant Staphylococcus aureus strain USA 200, (S. aureus) and Escherichia coli ATCC 25922 (E. coli), a clinically relevant Gram-negative strain. Cells were inoculated onto plates of Trypyticase Soy Agar or Luria Agar respectively and grown at 35° C. for 20 hours. Inocula suspensions were prepared by scraping cells into 1 mL of testing media (cation adjusted Mueller Hinton Broth supplemented with 0.002% v/v Tween-80) and diluting to a final OD600nm of 0.01.
Test compounds were prepared in DMSO at a concentration of 10 mg/mL. In protocol 1, the compound stocks were diluted into testing media at a concentration of 64 µg/ml and serial 2-fold dilutions were made in the same media, in 96-well U bottom microtiter dishes, for a total of 10 compound concentrations. In protocol 2, the compound stocks were diluted into testing media at a concentration of 4 µg/mL and serial 2-fold dilutions were made in the same media, in 96-well U bottom microtiter dishes, for a total of 10 compound concentrations. In protocol 3, compound stocks were diluted into testing media at a concentration of 0.5 μg/mL, with serial 2-fold dilutions conducted as described above. In protocol 4, compound stocks were diluted into testing media at a concentration of […], with serial 2-fold dilutions conducted as described above. Inocula suspensions were added to the 2-fold serial dilutions of test compounds to a final density of GD OD600nm of 0.0005 and incubated at 35° C. for 22 hours.

Test [2] concerns Escherichia coli ATCC 25922. As to the kind of experiment: Minimum inhibitory concentration (MIC), CLSI broth micro-dilution, E. coli. The format is cell-based. To be noted: Escherichia coli, ATCC25922, 22 h. An outline of the steps: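 Colonies grown 20 h at 35° C on Trypticase Soy agar (MRSA) or Luria agar (E. coli) were suspended in cation-adjusted Mueller Hinton broth with 0.002% Tween-80. Suspensions were added at OD600 0.0005 to 10-point twofold compound dilutions, then incubated 22 h at 35° C.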

Setting [3] is: Table 6, cation adjusted Mueller Hinton Broth + 0.002% Tween-80, 35° C.

Regarding `CCCCc1ccc(-c2ccc(C(=O)N[C@@H](CCN)C(=O)N(C)[C@@H]3C(=O)N[C@@H](C)C(=O)N[C@H](C(=O)NCC#N)Cc4ccc(OCCN)c(c4)-c4cc3ccc4OCCN)c(C)n2)cc1` (racemic) [Compound 207, rac-(8S,11S,14S)-3,18-bis(2-aminoethoxy)-N-(cyanomethyl)-11-methyl-14-[methyl-[rac-(2S)-4-amino-2-[[6-(4-butylphenyl)-2-methyl-pyridine-3-carbonyl]amino]butanoyl]amino]-10,13-dioxo-9,12-diazatricyclo[13.3.1.12,6]icosa-1(18),2(20),3,5,15(19),16-hexaene-8-carboxamide], the MIC came to 0.017 µM in test [1] (Table 6) and 0.1 µM in test [2] (setting [3]).
As to `CCCCCOc1ccc(-c2nc(C)c(C(=O)N[C@@H](CCN)C(=O)N(C)[C@@H]3C(=O)N[C@@H](C)C(=O)N[C@H](C(=O)NCC#N)Cc4ccc(OCCCN)c(c4)-c4cc3ccc4OCCCN)c(C)n2)cc1` (racemic) [Compound 435, rac-(8S,11S,14S)-3,18-bis(3-aminopropoxy)-N-(cyanomethyl)-11-methyl-14-[methyl-[rac-(2S)-4-amino-2-[[4,6-dimethyl-2-(4-pentoxyphenyl)pyrimidine-5-carbonyl]amino]butanoyl]amino]-10,13-dioxo-9,12-diazatricyclo[13.3.1.12,6]icosa-1(18),2(20),3,5,15(19),16-hexaene-8-carboxamide], the MIC in test [1] (Table 6) was 0.012 µM; in test [2] (setting [3]), 0.094 µM.
In the same order, the values of `Cc1nc(-c2ccc(C3CCOCC3)cc2)ncc1C(=O)N[C@@H](CCN)C(=O)N(C)[C@@H]1C(=O)N[C@@H](C)C(=O)N[C@H](C(=O)NCC#N)Cc2ccc(OCCN)c(c2)-c2cc1ccc2OCCN` (racemic) [Compound 231, rac-(8S,11S,14S)-3,18-bis(2-aminoethoxy)-N-(cyanomethyl)-11-methyl-14-[methyl-[rac-(2S)-4-amino-2-[[4-methyl-2-(4-tetrahydropyran-4-ylphenyl)pyrimidine-5-carbonyl]amino]butanoyl]amino]-10,13-dioxo-9,12-diazatricyclo[13.3.1.12,6]icosa-1(18),2(20),3,5,15(19),16-hexaene-8-carboxamide] are 0.35 µM and 1.4 µM.
For the molecule `Cc1nc(-c2ccc3c(c2)OCCC3(C)C)nc(C)c1C(=O)N[C@@H](CCN)C(=O)N(C)[C@@H]1C(=O)N[C@@H](C)C(=O)N[C@H](C(=O)NCC#N)Cc2ccc(OCCN)c(c2)-c2cc1ccc2OCCN` (racemic) [Compound 271, rac-(8S,11S,14S)-3,18-bis(2-aminoethoxy)-N-(cyanomethyl)-11-methyl-14-[methyl-[rac-(2S)-4-amino-2-[[2-(4,4-dimethylchroman-7-yl)-4,6-dimethyl-pyrimidine-5-carbonyl]amino]butanoyl]amino]-10,13-dioxo-9,12-diazatricyclo[13.3.1.12,6]icosa-1(18),2(20),3,5,15(19),16-hexaene-8-carboxamide], the figures for the MIC in test [1] (Table 6) and in test [2] (setting [3]) were 0.032 µM and 0.26 µM, respectively.
For `CCCCCc1ccc(-c2ncc(C(=O)N[C@@H](CCN)C(=O)N(C)[C@@H]3C(=O)N[C@@H](C)C(=O)N[C@H](C(=O)NCC#N)Cc4ccc(O)c(c4)-c4cc3ccc4O)c(C)n2)cc1` (racemic) [Compound 432, rac-(8S,11S,14S)-N-(cyanomethyl)-3,18-dihydroxy-11-methyl-14-[methyl-[rac-(2S)-4-amino-2-[[4-methyl-2-(4-pentylphenyl)pyrimidine-5-carbonyl]amino]butanoyl]amino]-10,13-dioxo-9,12-diazatricyclo[13.3.1.12,6]icosa-1(18),2(20),3,5,15(19),16-hexaene-8-carboxamide] the same measures were 0.045 µM and 1.4 µM.
For the molecule `CCCCCCCCc1ccc(C(=O)N[C@@H](CC(=O)NC)C(=O)N(C)[C@@H]2C(=O)N[C@@H](C)C(=O)N[C@H](C(=O)NCC#N)Cc3ccc(OCCN)c(c3)-c3cc2ccc3OCCN)c(C)c1` (racemic) [Compound 443, rac-(2S)-N,N′-dimethyl-2-[(2-methyl-4-octyl-benzoyl)amino]-N-[rac-(7S,10S,13S)-3,18-bis(2-aminoethoxy)-13-(cyanomethylcarbamoyl)-10-methyl-8,11-dioxo-9,12-diazatricyclo[13.3.1.12,6]icosa-1(19),2,4,6(20),15,17-hexaen-7-yl]butanediamide], the MIC in test [1] (Table 6) came out at 0.27 µM; in test [2] (setting [3]), 4.2 µM.
Take `CCCCCCOc1ccc(-c2nc(C)c(C(=O)N[C@@H](CCN)C(=O)N(C)[C@@H]3C(=O)N[C@@H](C)C(=O)N[C@H](C(=O)O)Cc4ccc(OCCN)c(c4)-c4cc3ccc4OCCN)c(C)n2)cc1` (racemic) [Compound 641, rac-(8S,11S,14S)-3,18-bis(2-aminoethoxy)-11-methyl-14-[methyl-[rac-(2S)-4-amino-2-[[2-(4-hexoxyphenyl)-4,6-dimethyl-pyrimidine-5-carbonyl]amino]butanoyl]amino]-10,13-dioxo-9,12-diazatricyclo [13.3.1.12,6]icosa-1(18),2(20),3,5,15(19), 16-hexaene-8-carboxylic acid]: the MIC came to 0.047 µM in test [1] (Table 8) and 0.094 µM in test [2] (Table 8, cation adjusted Mueller Hinton Broth + 0.002% Tween-80, 35° C.).
Consider `CCCCc1ccc(Oc2ccc(C(=O)N[C@@H](CCN)C(=O)N(C)[C@@H]3C(=O)N[C@@H](C)C(=O)N[C@H](C(=O)NCC#N)Cc4ccc(OCCN)c(c4)-c4cc3ccc4OCCN)c(Cl)c2)cc1` (racemic) [Compound 377, rac-(8S,11S,14S)-3,18-bis(2-aminoethoxy)-N-(cyanomethyl)-11-methyl-14-[methyl-[rac-(2S)-4-amino-2-[[4-(4-butylphenoxy)-2-chloro-benzoyl]amino]butanoyl]amino]-10,13-dioxo-9,12-diazatricyclo[13.3.1.12,6]icosa-1(18),2(20),3,5,15(19),16-hexaene-8-carboxamide], for which the MIC in test [1] (Table 6) came to 0.031 µM; in test [2] (setting [3]) it was 0.5 µM.
For `Cc1nc(-c2ccc(N3CCCCC3)cc2)nc(C)c1C(=O)N[C@@H](CCN)C(=O)N(C)[C@@H]1C(=O)N[C@@H](C)C(=O)N[C@H](C(=O)NCC#N)Cc2ccc(OCCN)c(c2)-c2cc1ccc2OCCN` (racemic) [Compound 324, rac-(8S,11S,14S)-3,18-bis(2-aminoethoxy)-N-(cyanomethyl)-11-methyl-14-[methyl-[rac-(2S)-4-amino-2-[[4,6-dimethyl-2-[4-(1-piperidyl)phenyl]pyrimidine-5-carbonyl]amino]butanoyl]amino]-10,13-dioxo-9,12-diazatricyclo[13.3.1.12,6]icosa-1(18),2(20),3,5,15(19),16-hexaene-8-carboxamide] the same measures were 0.047 µM and 0.13 µM.
Consider `CCCCCOC1CCN(c2nc(C)c(C(=O)N[C@@H](CCN)C(=O)N(C)[C@@H]3C(=O)N[C@@H](C)C(=O)N[C@H](C(=O)NCC#N)Cc4ccc(OCCN)c(c4)-c4cc3ccc4OCCN)c(C)n2)CC1` (racemic) [Compound 317, rac-(8S,11S,14S)-3,18-bis(2-aminoethoxy)-N-(cyanomethyl)-11-methyl-14-[methyl-[rac-(2S)-4-amino-2-[[4,6-dimethyl-2-(4-pentoxy-1-piperidyl)pyrimidine-5-carbonyl]amino]butanoyl]amino]-10,13-dioxo-9,12-diazatricyclo[13.3.1.12,6]icosa-1(18),2(20),3,5,15(19),16-hexaene-8-carboxamide], for which the results for the MIC in test [1] (Table 6) and in test [2] (setting [3]) were 0.047 µM and 0.5 µM, respectively.
